Measured values from PubChem BioAssay AID1745844 (Carcinogenic Potency Database (CPDB), 2022).
Activity calls are given as the source filed them. How the calls were made is not given here.

Tested on: rodent lifetime carcinogenesis bioassay, tumor incidence TD50
Assay: carcinogenic potency in animals, long-term in vivo studies, CPDB compilation (AID 1745844)

For `NC(=O)c1ccncc1`, the TD50 (mouse, strain Swiss albino, females, in drinking water, site: liver, lesion: hepatoma, dosed 121 weeks, study length 121 weeks) was 21300 mg/kg/day (inactive), the carcinogen call (mouse, strain Swiss albino, females, in drinking water, site: lung, lesion: several types, types named in the paper, dosed 121 weeks, study length 121 weeks) was “negative (inactive)” and the carcinogen call (mouse, strain Swiss albino, males, in drinking water, site: lung, lesion: several types, types named in the paper, dosed 117 weeks, study length 117 weeks) was “negative (inactive)”.

In the case of `O=NC(=O)CCNCCO`, the TD50 (hamster, strain Syrian Golden, females, by gavage, site: liver, lesion: cholangioadenoma/carcinoma, dosed 50 weeks, study length 65 weeks) is reported as 2.68 mg/kg/day, the TD50 (hamster, strain Syrian Golden, females, by gavage, site: liver, lesion: cholangiocarcinoma, dosed 50 weeks, study length 65 weeks) is reported as 5.58 mg/kg/day and the TD50 (hamster, strain Syrian Golden, females, by gavage, site: liver, lesion: hepatocellular adenoma, dosed 50 weeks, study length 65 weeks) is reported as 5.58 mg/kg/day. The TD50 (hamster, strain Syrian Golden, females, by gavage, site: liver, lesion: hepatocellular carcinoma/adenoma, dosed 50 weeks, study length 65 weeks) was 3.72 mg/kg/day, the TD50 (hamster, strain Syrian Golden, females, by gavage, site: liver, lesion: several types, types named in the paper, dosed 50 weeks, study length 65 weeks) was 0.997 mg/kg/day and the TD50 (hamster, strain Syrian Golden, females, by gavage, site: lung, lesion: adenoma, dosed 50 weeks, study length 65 weeks) was 31.3 mg/kg/day. For the same molecule, the TD50 (hamster, strain Syrian Golden, females, by gavage, site: pancreatic duct, lesion: carcinoma, dosed 50 weeks, study length 65 weeks) was 3.72 mg/kg/day, the TD50 (hamster, strain Syrian Golden, females, by gavage, site: pancreatic duct, lesion: several types, types named in the paper, dosed 50 weeks, study length 65 weeks) was 2.31 mg/kg/day and the TD50 (rat, strain Fischer 344, females, in drinking water, site: liver, lesion: hepatocellular carcinoma, dosed 50 weeks, study length 120 weeks) was 2.7 mg/kg/day. For the same molecule, the TD50 (rat, strain Fischer 344, females, in drinking water, site: liver, lesion: neoplastic nodule, dosed 50 weeks, study length 120 weeks) was 2.7 mg/kg/day and the TD50 (rat, strain Fischer 344, females, in drinking water, site: liver, lesion: several types, types named in the paper, dosed 50 weeks, study length 120 weeks) was 1.8 mg/kg/day.

With `CCN(CC)CCOc1ccc(C(=C(Cl)c2ccccc2)c2ccccc2)cc1` the TD50 (mouse, strain C57L/He x 129/Rr x C3HeB/De x SWR/Ly, females, by gavage, site: any site (literature study), lesion: several types, types named in the paper, dosed 69 weeks, study length 69 weeks) was 3.62 mg/kg/day (inactive), the carcinogen call (mouse, strain C57L/He x 129/Rr x C3HeB/De x SWR/Ly, females, by gavage, site: any site (literature study), lesion: several types, types named in the paper, dosed 69 weeks, study length 82 weeks) was “negative (inactive)” and the TD50 (mouse, strain C57L/He x 129/Rr x C3HeB/De x SWR/Ly, females, by gavage, site: lung, lesion: one or several types, types not named, dosed 69 weeks, study length 69 weeks) was 5 mg/kg/day (inactive).

With `O=S1(=O)CC=CC1` the carcinogen call (mouse, strain B6C3F1, females, by gavage, site: any site (literature study), lesion: several types, types named in the paper, dosed 78 weeks, study length 90 weeks) was “negative (inactive)”, the TD50 (mouse, strain B6C3F1, females, by gavage, site: lung, lesion: alveolar/bronchiolar adenoma + alveolar/bronchiolar carcinoma, dosed 78 weeks, study length 90 weeks) was 1940 mg/kg/day and the TD50 (mouse, strain B6C3F1, males, by gavage, site: any site (literature study), lesion: several types, types named in the paper, dosed 78 weeks, study length 90 weeks) was 631 mg/kg/day (inactive). For the same molecule, the TD50 (mouse, strain B6C3F1, males, by gavage, site: liver, lesion: hepatocellular adenoma + hepatocellular carcinoma + neoplastic nodule, dosed 78 weeks, study length 90 weeks) was 415 mg/kg/day, the TD50 (mouse, strain B6C3F1, males, by gavage, site: lung, lesion: alveolar/bronchiolar adenoma + alveolar/bronchiolar carcinoma, dosed 78 weeks, study length 90 weeks) was 882 mg/kg/day and the TD50 (rat, strain Osborne-Mendel, females, by gavage, site: any site (literature study), lesion: several types, types named in the paper, dosed 78 weeks, study length 111 weeks) was 5370 mg/kg/day (inactive). The TD50 (rat, strain Osborne-Mendel, males, by gavage, site: any site (literature study), lesion: several types, types named in the paper, dosed 69 weeks, study length 111 weeks) was 30.8 mg/kg/day (inactive).
